In ChEMBL document CHEMBL3507680, “University of Dundee, Gates Library screen for HepG2 cell viability” one finds cytotoxicity data, which are given here for 40 compounds.

Each structure is given as a SMILES string.

This data set is described as follows: Human HepG2 cell viability assay in 384 well format. Set-up: dose 125 nL, time 70.5 hour; cytotoxicity at 70.5 h: concentration not given beside the values. The conditions noted are these: HepG2 cells, read-out: Inhibition. The data set is classed as toxicity, cell-based.

Regarding `Cc1ccc(CN2CCCC(c3cnccn3)C2)s1` (stereo not given), the cytotoxicity at 70.5 h was -1.38%.

`COc1ccc2c(c1)C(=O)NC1(CC2)CCN(Cc2ccncc2)C1` (stereo not given): the cytotoxicity at 70.5 h was -0.942%.

`O=C(Cc1ccccc1)NCc1ncc(-c2ccccc2C(=O)O)cn1`: the cytotoxicity at 70.5 h is -4.73%.

On to `Cc1cc(N2CCCC2(C)c2nc(C)cc(C(=O)N(C)C)n2)ncn1` (stereo not given), for which the cytotoxicity at 70.5 h was -2.78%.

In the case of `Cc1ccc(CN2CCC(c3cnccn3)CC2)s1`, the cytotoxicity at 70.5 h is -3.44%.

For `CC(C)N1CCCC1c1cc(C(F)(F)F)[nH]n1` (stereo not given), the cytotoxicity at 70.5 h amounted to 0.712%.

Turning to `CN(C)c1cc(C2CCCN(Cc3cnn(C)c3)C2)ccn1` (stereo not given), the cytotoxicity at 70.5 h is -0.665%.

Take `Fc1ccc(-c2cnc(C3CCNCC3)cn2)cc1`: the cytotoxicity at 70.5 h was -2.13%.

Take `Cc1n[nH]c(C)c1CCC(=O)N1CCC(O)(CN2CCOCC2)C1` (stereo not given): the cytotoxicity at 70.5 h turned out to be 15.2%.

For `CN(C)[C@@H]1CN(C(=O)c2cc3ccc(F)cc3[nH]2)C[C@H]1O`, the cytotoxicity at 70.5 h is -2.24%.

Take `Cn1nccc1CCC(=O)NC1CCCN(c2ccccn2)C1` (stereo not given): the cytotoxicity at 70.5 h is -1.31%.

With `CC(C)n1nnc(CC(=O)NCC2(c3cccc(F)c3)CCCC2)n1`, the cytotoxicity at 70.5 h was 15.1%.

In the case of `CC(C)N1CC[C@@](C)(O)[C@H](n2ccc(=O)[nH]c2=O)C1`, the cytotoxicity at 70.5 h is -7.14%.

On to `Cn1c(=O)[nH]c(=O)c2c1nc1n2CC(c2ccc(Br)cc2)O1` (stereo not given), for which the cytotoxicity at 70.5 h is -3.88%.

Take `O=C(NCc1ccco1)c1cc[n+]([O-])cc1`: the cytotoxicity at 70.5 h was -4.13%.

As to `O=C(O)C1CN(c2cncc(Cc3ccccc3F)n2)C1`, the cytotoxicity at 70.5 h is -6.79%.

On to `CC(=O)Nc1cc(CCC2CCN(C(=O)c3ccccn3)CC2)ccn1`, for which the cytotoxicity at 70.5 h is -14.2%.

In the case of `CC(=O)N(C)Cc1cncc(C2CCCN2C2CCOCC2)n1` (stereo not given), the cytotoxicity at 70.5 h is -9.86%.

For `CS(=O)(=O)N1CCCC(Cc2ccnc(Nc3ccccn3)c2)C1` (stereo not given), the cytotoxicity at 70.5 h is -6.97%.

Turning to `CS(=O)(=O)N1CCC(Cc2cnc(Br)cn2)C1` (stereo not given), the cytotoxicity at 70.5 h was determined as 45.3%.

As for `Cc1ccc2[nH]c(C3CCN(CC(N)=O)CC3)nc2c1`, the cytotoxicity at 70.5 h was found to be 9.74%.

As for `CNC(=O)c1sc2ccccc2c1C1CCN(c2cc(C)nc(C)n2)C1` (stereo not given), the cytotoxicity at 70.5 h was found to be 18.1%.

Consider `Cc1nnc(C2CCN(c3ccccc3)CC2)o1`, for which the cytotoxicity at 70.5 h is -9.47%.

Consider `Oc1cc(C2CCCCN2C2CCCC2)nc(-c2cccnc2)n1` (stereo not given), for which the cytotoxicity at 70.5 h was -7.77%.

As for `Cc1cc(C2CCCN(S(=O)(=O)c3cn(C)cn3)C2)ccn1` (stereo not given), the cytotoxicity at 70.5 h is -5.97%.

On to `CN(C)C(c1ccccn1)[C@H]1CC[C@H](CNC(=O)CC2CCCC2)CC1` (stereo not given in full), for which the cytotoxicity at 70.5 h was -7.26%.

`O=C(O)c1ccccc1-n1cnc(CN2CCc3ccccc3C2)c1`: the cytotoxicity at 70.5 h came to 27.7%.

As for `Cc1ccc2c(CC(=O)N3C[C@@H](O)[C@H](N(C)C)C3)coc2c1`, the cytotoxicity at 70.5 h was -5.65%.

`CN(C)Cc1ccccc1Cn1cncc1-c1cnn(C)c1`: the cytotoxicity at 70.5 h was -3.97%.

In the case of `CC(=O)N1CCC(c2cncc(N3CCCCCC3)n2)CC1`, the cytotoxicity at 70.5 h is -17.2%.

For the compound `Cn1ccc(CN2CC(Cc3nccc4cc[nH]c34)C2)n1`, the cytotoxicity at 70.5 h is -4.79%.

In the case of `CS(=O)(=O)N1CCC(c2cncc(Cl)n2)CC1`, the cytotoxicity at 70.5 h came out at 27.2%.

Consider `CC1CCN(c2cncc(CCC3CCCN3)n2)CC1` (stereo not given), for which the cytotoxicity at 70.5 h is -8.58%.

With `Cc1cc(N2CCN(Cc3ccnn3C)CC2)cc(C2CCCN2)n1` (stereo not given), the cytotoxicity at 70.5 h is 13%.

As for `CCN(CC)C(=O)CN1CCc2c(nc(C3CCNCC3)nc2NC)C1`, the cytotoxicity at 70.5 h was -8.61%.

As to `COc1ccc(-c2cc(C3CCNCC3)nc(C)n2)cc1`, the cytotoxicity at 70.5 h is -6.57%.

Consider `CCN1CCCc2cc(-c3cncn3C(C)CN3CCOCC3)ccc21` (stereo not given), for which the cytotoxicity at 70.5 h was -4.04%.

Turning to `CCC(CN1CCOCC1)n1cncc1-c1ccc2c(c1)CCCN2C` (stereo not given), the cytotoxicity at 70.5 h was -6.78%.

As for `Cc1ccc(-c2cc(C3CCNCC3)nc(C)n2)cc1`, the cytotoxicity at 70.5 h was -6.7%.

For `Cc1cccc(Nc2cc(C)nc(C3CCN(C(C)C)C3)n2)n1` (stereo not given), the cytotoxicity at 70.5 h worked out at 15.7%.
